The results in this text go back to US20170332910A1, “MODIFIED PARAMAGNETIC NANOPARTICLES FOR TARGETED DELIVERY OF THERAPEUTICS AND METHODS THEREOF” (ALBERT EINSTEIN COLLEGE OF MEDICINE, INC., priority 2014, published 2017).

In data set [1] the test system is human breast cancer xenographs. Kind of data set: MRI of magnetic field induced localization of gadolinium oxide based PMNPs. Type of data set: in vivo, mouse. How it is done:
FIGS. 3(A-D). […] By applying a magnet field for 30 minutes at hind end (blue arrows), the enhanced image of hind-end tumor is observed (3B). The enhanced image of the tumor persists for at least several hours. […] The PMNPs are concentrated at site of a lower abdominal mammary tumor (FIG. 3C) using an external magnetic field placed over the tumor for 30 minutes. […] Imaging was performed over several hours without taking the mouse out of MRI machine thereby maintaining all of the imaging parameters.
FIGS. 4(A-B). Compares the MRI contrast data between […] (gadopentetate dimeglumine) and gadolinium oxide-based PMNPs.
In FIG. 3 are presented results on magnetic immobilization of gadolinium-based PMNPs in a mouse with numerous human breast cancer xenographs. There is no image enhancement for any of the multiple tumors located in different parts of the mouse including one at hind end (green-arrow at bottom of the picture marked tumor). The mouse was then removed and then subjected to thirty minutes of having a magnetic field placed over the tumor demarked by the green arrow. […] The intensity of MRI signal is very similar at both tumor and bladder. This is very different than observed in case of […] where there is a transient image of the bladder and no site specific localization of the contrast agent in any one of the tumors. […]

Data set [2] relates to human glioblastoma (GBM43). Put plainly: Effect of LPS-PMNPs on delivery of irinotecan, intracranial glioblastoma. It is filed as in vivo, mouse. The settings on record: LPS-PMNP plus magnetic field vs groups 1 and 2, 24 hours after dose on day 18. How it is done:
In this study, human glioblastoma (GBM43) were maintained as subcutaneous xenografts. The tumor cells from subcutaneous xenografts were transfer to the intracranial compartment. Cells were suspended in DMEM media at 1×10^5 cells/μL for intracranial injection. 3 μL of tumor cell suspension (3×10^5 cells total) were injected into the right caudate putamen of 6 week-old female athymic mice (nu/nu). Prior to injection, the mice were anesthetized IP (intraperitoneal injection) (ketamine/xylazine). 0.4 mg of irinotecan was administrated via tail vein to each mouse on day 12 after implantation of tumor cells, and repeated at days 18, 24, and 30. LPS-PMNPs were administered via tail vein 4 hours prior to administration of irinotecan. All treatment groups received treatment with irinotecan. The treatment groups were: 1) control (without LPS-PMNP treatment); 2) LPS-PMNP (LPS-PMNP treatment without magnetic field); and 3) LPS-PMNP with magnetic field (strong localized magnetic field applied to tumor area). For group 3, the strong localized magnetic field was applied to the tumor cranial area using a conical magnet. […]
The irinotecan content in the brain and the tumor from a mouse in each group was also determined. […] Irinotecan levels in the tumor tissues were measured from homogenized tissues in acidic methanol solution, and measured using an HPLC (eluted peaks, 380/540 nm). […]

The subject of data set [3] is human glioblastoma (GBM43). Kind of data set: LPS-PMNPs and oral temozolomide, survival and drug delivery. It is filed as in vivo, mouse. The settings on record: oral 20 mg/kg after LPS-PMNP with magnetic field; relative to groups 1-3. On the procedure: In this study, human glioblastoma (GBM43) were again maintained as subcutaneous xenografts. The tumor cells from subcutaneous xenografts were transfer to the intracranial compartment. Cells were suspended in DMEM media at 1×10^5 cells/μL for intracranial injection. 3 μL of tumor cell suspension (3×10^5 cells total) were injected into the right caudate putamen of 6 week-old female athymic mice (nu/nu). Prior to injection, the mice were anesthetized IP (intraperitoneal injection) (ketamine/xylazine). PMNPs (10 mg/kg) with and without LPS were administered via tail vein. 6 hours after administration of PMNPs, 20 mg/kg temozolomide (TMZ) was administrated as oral suspension in a vehicle containing 2.5 mg/ml Povidone K30, 0.015% citric acid, 50% Ora-Plus, 50% Ora-Sweet SF (Paddock Labs Minneapolis, Minn.) on days 12, 18, 24, and 30. The treatment groups were: 1) control (no TMZ); 2) TMZ alone; 3) LPS-PMNP plus TMZ (without magnetic field); and 4) LPS-PMNP plus TMZ with magnetic field (strong localized magnetic field applied to tumor area). The mice were euthanized as the symptoms from the increasing tumor burden prevented access to food/water.

Data set [4] deals with TNFα, TGBβ, MCP-1, IL-1α, IL-1β, IL-6, IL-10, and IL-12. Kind of data set: Time-dependent cytokine levels (systemic inflammation). It is filed as in vivo, mice. How it is done: This study monitored the time-dependent changes in various cytokine levels (TNFα, TGBβ, MCP-1, IL-1α, IL-1β, IL-6, IL-10, and IL-12) for LPS-PMNPs (10 mg/kg) in mice with and without magnetic field (i.e., treatment with or without a localized magnet) as compared with free LPS introduced at 10 mg/kg and 2 mg/kg—a lower concentration than for the LPS carried on the PMNPs. The cytokine levels for each group were measured over a 24-hour period, with measurements at baseline, 1 hour, 6 hours, and 24 hours. The four comparison groups were: A) LPS-PMNP (10 mg/kg) without magnetic field; B) LPS-PMNP (10 mg/kg) with magnetic field; C) free LPS (2 mg/kg); and D) free LPS (10 mg/kg).

Data set [5] has as its system xenografted human breast cancer. Kind of data set: ADM-PMNP plus magnetic field on xenografted human breast cancer (bioluminescence). It is filed as in vivo, mouse. The settings on record: comparable amount of free drug. How it is done: FIG. 8 Anti-tumor effect of IV infused Adriamycin loaded PMNP (ADM-PMNP) plus magnetic field treatment on xenografted human breast cancer. Human breast cancer was s.c. xenografted in a female nude mouse. The mouse was injected with 1 mg/kg ADM-PMNP and the tumor was treated with magnetic field for 30 minutes following each injection The mouse was imaged before and after the treatment, the luminescent signals were quantitatively analyzed for change of tumor size. At the end of the treatment, there was a >80% decrease of luminescent signaling in the tumor. The signal recovered partially 3 days after the treatment was ended.
Signal intensity in treated tumor was similar to that in bladder, a major route of PMNP elimination. Next, to assess drug delivery and anti-tumor efficacy, MoB-1833 mammary xenografted tumor-bearing mice were infused with ADM-coated PMNP (ADM-PMNP). ADM use in chemotherapy is limited due to systemic toxicity and it is therefore an excellent model drug for evaluation of the potentially utility of our PMNP platform. […] This ADM dose is 5-20 times lower than doses of free ADM commonly used for in animal studies and similar to doses used clinically. The 4-day treatment achieved a 9-fold reduction in tumor mass (FIG. 8). Tumor rebound upon drug termination confirmed specificity of the drug effect. […] The necrosis was confirmed histologically (FIG. 9Bd-f). […]

The next data set concerns MDA-MB-436. Put plainly: Tumor necrosis in MDA-MB-436 xenografts. It is filed as in vivo, mouse. The settings on record: 1.0 mg/kg.
The nature of data set [6]: Histopathological analysis of multiple tissues (toxicity). It is filed as in vivo, mouse. The settings on record: 1 mg/kg. On the procedure:
FIGS. 11(A-B). Systemic effect of the treatment. (A) Representative H&E staining of tissue sections from ADM-PMNP injected mice (1 mg/kg BW)(A). (B) inflammation and hyperplasia were found in colon from mice treated with free ADM (B-left) but not in mice injected with the same dose of ADM-PMNP (B-right).

The subject of data set [7] is U87 human glioblastoma cells. Kind of data set: Cell viability assay (Presto Blue). Type of data set: cell-based. The settings on record: 48 h incubation. How it is done:
FIG. 22 Cytotoxicity of naked curcumin, curcumin conjugated PMNPs and Sol-Gel Nps and blanks (without curcumin) performed on U87 human glioblastoma cells after 48 hours of incubation. Note that 1 μM equivalent curcumin concentration corresponds to 16.7 μg/mL of nanoparticles. […] The data represents the mean±SE, n=3 to 18.
Cells were plated in 24-well trays and allowed to become confluent then incubated with naked curcumin or different curcumin NP concentrations for 48 h. Cell viability was quantified using Presto Blue (Invitrogen) an assay that contains a cell permeable resazurin-based solution that is modified by the reducing environment of the viable cell becoming highly fluorescent. Using a plate reader, cell viability was quantified after 0.5-1 hours of incubation with Presto Blue. All measurements were always accompanied by control wells and by calibration wells to account for background fluorescence using the same culture media and the same NP concentrations without the cells.
U-87 used as an vitro model of human glioblastoma were incubated with either Curcumin or Curcumin loaded NPs.

For the compound `CNC[C@H](O)[C@@H](O)[C@H](O)[C@H](O)CO.CNC[C@H](O)[C@@H](O)[C@H](O)[C@H](O)CO.O=C([O-])CN(CCN(CC(=O)[O-])CC(=O)O)CCN(CC(=O)[O-])CC(=O)O.[Gd+3]` [gadopentetate dimeglumine], in data set [1] (mouse, in vivo), the “persistence of MRI contrast” value was “short lived”. Also, the “distribution of contrast agent (MRI)” value in data set [1] (within a short time, no magnetic field) is given as “concentrates in the bladder”.

In the case of `CCc1c2c(nc3ccc(OC(=O)N4CCC(N5CCCCC5)CC4)cc13)-c1cc3c(c(=O)n1C2)COC(=O)[C@]3(O)CC` [irinotecan], in data set [2], the “irinotecan content in the brain” value is “higher”. Besides, the “irinotecan content in the tumor” value in data set [2] (HPLC) is listed as “significantly higher”.

With `Cn1nnc2c(C(N)=O)ncn2c1=O` [TMZ, temozolomide], the “TMZ content in the tumor” value in data set [3] is reported as “greater TMZ content in the tumor”.

As for lipopolysaccharides [free LPS], the acute inflammation entry in data set [4] (2 mg/kg, compared with LPS-PMNP (10 mg/kg)) is given as “substantially greater”. Also, the inflammation over time entry in data set [4] (10 mg/kg) is reported as “produced endotoxemia”.

As to `COc1cccc2c1C(=O)c1c(O)c3c(c(O)c1C2=O)C[C@@](O)(C(=O)CO)C[C@@H]3O[C@H]1C[C@H](N)[C@H](O)[C@H](C)O1` [Adriamycin, Adriamycin (doxorubicin)], in data set [5], the anti-tumor effect result is given as “relatively ineffective”. Also, the tumor necrosis result in the data set with MDA-MB-436 is “smaller necrotic lesions”. Also, in data set [6], the histopathological findings entry was “colonic inflammation and hyperplasia”.

Take `COc1cc(/C=C/C(=O)CC(=O)/C=C/c2ccc(O)c(OC)c2)ccc1O` [curcumin, Curcumin]: in data set [7], the “equivalent curcumin concentration able to significantly decrease cell viability by 20%” value was 5 µM.
